Experimental data: ChEMBL document CHEMBL1159305, “Vidalenolone, a novel phenolic metabolite from the tropical red alga Vidalia sp” (J Nat Prod, 2002)
Activity calls are given as the source filed them.

Key:
[1] = biological target: Tyrosine-protein kinase Fyn (Homo sapiens) (UniProt P06241); experiment: Inhibition of GST-tagged human recombinant full length Fyn SH2 domain expressed in Escherichia coli […] binding to biotinylated phosphotyrosine-containing peptide by ELISA
[2] = biological target: Tyrosine-protein kinase ABL1 (Homo sapiens) (UniProt P00519); experiment: Inhibition of GST-tagged human recombinant full length Abl SH2 domain expressed in Escherichia coli […] binding to biotinylated phosphotyrosine-containing peptide by ELISA
Sequence of Tyrosine-protein kinase ABL1 (Homo sapiens) (P00519 whole entry, the tested form may be a part): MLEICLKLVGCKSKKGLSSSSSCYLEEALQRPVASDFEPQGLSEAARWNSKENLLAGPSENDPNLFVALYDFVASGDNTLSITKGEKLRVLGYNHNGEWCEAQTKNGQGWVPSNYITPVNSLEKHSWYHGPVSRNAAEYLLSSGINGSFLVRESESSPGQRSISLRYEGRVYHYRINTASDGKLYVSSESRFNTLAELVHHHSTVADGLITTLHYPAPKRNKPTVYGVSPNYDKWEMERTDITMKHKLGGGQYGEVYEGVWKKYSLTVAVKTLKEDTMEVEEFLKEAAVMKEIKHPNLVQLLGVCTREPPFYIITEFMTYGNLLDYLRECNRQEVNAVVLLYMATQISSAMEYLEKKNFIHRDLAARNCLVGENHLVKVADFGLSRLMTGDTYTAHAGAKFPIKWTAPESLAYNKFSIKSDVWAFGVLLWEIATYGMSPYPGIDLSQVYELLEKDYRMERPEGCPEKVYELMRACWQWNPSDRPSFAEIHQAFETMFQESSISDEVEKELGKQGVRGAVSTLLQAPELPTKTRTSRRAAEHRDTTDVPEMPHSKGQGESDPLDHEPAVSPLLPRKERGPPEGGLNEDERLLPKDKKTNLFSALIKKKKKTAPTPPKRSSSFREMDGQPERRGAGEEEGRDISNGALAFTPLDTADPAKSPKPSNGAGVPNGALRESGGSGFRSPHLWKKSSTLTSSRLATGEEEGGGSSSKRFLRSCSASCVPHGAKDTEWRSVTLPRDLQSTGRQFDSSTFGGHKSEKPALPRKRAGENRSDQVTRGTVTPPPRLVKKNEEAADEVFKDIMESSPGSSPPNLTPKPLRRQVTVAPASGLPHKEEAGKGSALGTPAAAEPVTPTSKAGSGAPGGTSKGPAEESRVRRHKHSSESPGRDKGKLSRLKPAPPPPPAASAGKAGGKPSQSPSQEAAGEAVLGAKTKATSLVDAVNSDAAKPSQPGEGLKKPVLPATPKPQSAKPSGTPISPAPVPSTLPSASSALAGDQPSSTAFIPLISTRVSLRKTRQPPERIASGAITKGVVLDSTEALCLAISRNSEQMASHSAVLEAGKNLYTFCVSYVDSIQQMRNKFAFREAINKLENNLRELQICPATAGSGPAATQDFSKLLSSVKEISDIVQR

[3] = biological target: Adapter molecule crk (Homo sapiens) (UniProt P46108); experiment: Inhibition of GST-tagged human recombinant full length Crk SH2 domain expressed in Escherichia coli […] binding to biotinylated phosphotyrosine-containing peptide by ELISA
Sequence of Adapter molecule crk (Homo sapiens) (P46108 whole entry, the tested form may be a part): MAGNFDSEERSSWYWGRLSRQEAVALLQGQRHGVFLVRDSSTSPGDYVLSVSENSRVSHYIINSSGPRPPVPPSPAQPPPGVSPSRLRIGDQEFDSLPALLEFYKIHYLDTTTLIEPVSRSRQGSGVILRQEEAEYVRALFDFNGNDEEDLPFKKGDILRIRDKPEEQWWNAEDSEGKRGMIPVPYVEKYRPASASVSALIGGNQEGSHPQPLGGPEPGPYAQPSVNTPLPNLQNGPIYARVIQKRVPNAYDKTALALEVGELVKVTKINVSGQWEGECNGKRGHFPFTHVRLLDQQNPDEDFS

[4] = biological target: Growth factor receptor-bound protein 2 (Homo sapiens) (UniProt P62993); experiment: Inhibition of GST-tagged human recombinant full length Grb2 SH2 domain expressed in Escherichia coli […] binding to biotinylated phosphotyrosine-containing peptide by ELISA
Sequence of Growth factor receptor-bound protein 2 (Homo sapiens) (P62993 whole entry, looked up, the tested form may be a part): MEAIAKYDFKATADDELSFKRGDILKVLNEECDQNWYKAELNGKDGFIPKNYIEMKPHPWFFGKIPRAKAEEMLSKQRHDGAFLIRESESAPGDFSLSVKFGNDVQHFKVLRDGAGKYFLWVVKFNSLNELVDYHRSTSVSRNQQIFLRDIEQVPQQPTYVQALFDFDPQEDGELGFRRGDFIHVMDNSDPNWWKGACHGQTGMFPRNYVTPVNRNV

Measured: Activity

Sequence of Tyrosine-protein kinase Fyn (Homo sapiens) (P06241 2-537 limits assumed): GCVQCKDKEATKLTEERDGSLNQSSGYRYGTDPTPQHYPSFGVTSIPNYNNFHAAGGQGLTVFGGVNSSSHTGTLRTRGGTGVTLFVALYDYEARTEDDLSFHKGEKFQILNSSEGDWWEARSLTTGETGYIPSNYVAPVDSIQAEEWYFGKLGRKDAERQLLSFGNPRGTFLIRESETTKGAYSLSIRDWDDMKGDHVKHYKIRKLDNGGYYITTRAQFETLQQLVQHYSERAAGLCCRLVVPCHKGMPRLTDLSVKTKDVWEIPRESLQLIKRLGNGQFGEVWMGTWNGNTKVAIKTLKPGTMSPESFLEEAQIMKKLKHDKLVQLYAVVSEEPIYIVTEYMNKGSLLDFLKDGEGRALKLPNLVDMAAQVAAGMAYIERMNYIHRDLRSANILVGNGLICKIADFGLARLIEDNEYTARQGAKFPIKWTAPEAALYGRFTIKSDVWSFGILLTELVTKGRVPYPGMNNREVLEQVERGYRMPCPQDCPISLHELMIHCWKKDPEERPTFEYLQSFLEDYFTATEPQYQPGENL

OCc1ccc(O)cc1
inactive: [1] | [2] | [3] | [4]

COC1(Cc2ccc(O)cc2)CC=C(O)C1=O (configuration not stated)
inactive: [1] | [2] | [3] | [4]

CCOCc1cc(O)c(O)c(Br)c1Br
inactive: [1] | [2] | [3] | [4]
